Results published in patent US9156811B2 (priority 2008, dated 2015).
Read-outs that look alike come from different tables or passages of the source.

Tests used:
[1] = target: T. brucei N-myristoyl transferase (Trypanosoma brucei brucei (strain 927/4 GUTat10.1), UniProt Q388H8); assay: biochemical; type: biochemical; conditions: read-out: IC50 (μM) NMT Enzyme
[2] = test system: Trypanosome (T. brucei brucei); assay: In-vitro antitrypanosomal efficacy assay (cell growth, resazurin); type: cell-based; conditions: T. brucei cell growth
Description: To column 12, 200 μl media was added to provide a no cells control. Plates were then incubated at 37° C. in an atmosphere of 5% CO2 for 69 hours, before the addition of 20 μl of 500 μM rezasurin solution, and a further incubation period of 4 hours. […] Concentration effect curves were fitted using non-linear regression using XLFit 4.2 and EC50 values determined.

[3] = value printed without enzyme tag in the NMT Enzyme column (taken as T. brucei NMT)
[4] = value with no enzyme tag in the cell, taken as T. brucei NMT

Sequence of T. brucei N-myristoyl transferase (Q388H8 1-446): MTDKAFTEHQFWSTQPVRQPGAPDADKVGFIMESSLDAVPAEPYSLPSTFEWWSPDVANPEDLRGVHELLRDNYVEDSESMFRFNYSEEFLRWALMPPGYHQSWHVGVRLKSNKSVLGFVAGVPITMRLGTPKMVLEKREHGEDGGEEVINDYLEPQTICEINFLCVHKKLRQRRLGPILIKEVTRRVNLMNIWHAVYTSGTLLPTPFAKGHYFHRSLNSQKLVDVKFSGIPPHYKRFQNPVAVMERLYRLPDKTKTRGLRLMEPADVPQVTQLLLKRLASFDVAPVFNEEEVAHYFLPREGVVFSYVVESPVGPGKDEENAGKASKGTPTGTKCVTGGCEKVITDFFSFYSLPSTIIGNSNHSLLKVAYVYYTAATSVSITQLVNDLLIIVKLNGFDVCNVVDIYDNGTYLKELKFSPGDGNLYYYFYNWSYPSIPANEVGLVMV

Compound: Cc1nn(C)c(C)c1N[S+](=O)([O-])c1ccc(CSc2ccc(C(C)(C)C)cc2)cc1 [DDD85609]
- IC50 [1, 3]: 69.5 µM
- ED50 (μM) T. brucei [2]: >1 µM

Compound: Cc1nn(C)c(C)c1N[S+](=O)([O-])c1ccc(CSc2ccc(Cl)cc2Cl)cc1 [DDD85610]
- IC50 [1, 3]: 61.6 µM
- ED50 (μM) T. brucei [2]: >1 µM

Compound: Cc1ncccc1N[S+](=O)([O-])c1ccc(NCc2ccc3[nH]ccc3c2)nc1 [DDD85611]
- IC50 [1, 3]: 7.2 µM
- ED50 (μM) T. brucei [2]: >1 µM

Compound: Cc1nn(C)c(C)c1N[S+](=O)([O-])c1ccc(NC2CCc3ccccc32)nc1 (stereo not drawn) [DDD85613]
- IC50 [1, 3]: 6.6 µM
- ED50 (μM) T. brucei [2]: >1 µM

Compound: Cc1nn(C)c(C)c1N[S+](=O)([O-])c1ccc(N(C)Cc2ccc(CN(C)C)cc2)nc1 [DDD85624]
- IC50 [1, 3]: 0.36 µM
- ED50 (μM) T. brucei [2]: 1.5 µM

Compound: Cc1nn(C)c(C)c1N(CC1CC1)[S+](=O)([O-])c1c(Cl)cc(Br)cc1Cl [DDD85625]
- IC50 [1, 3]: 0.67 µM
- ED50 (μM) T. brucei [2]: 4.6 µM

Compound: Cc1nn(C)c(C)c1N[S+](=O)([O-])c1ccc(N(C)CCCN(C)C)nc1 [DDD85626]
- IC50 [1, 3]: 0.61 µM
- ED50 (μM) T. brucei [2]: 1.9 µM

Compound: Cc1nn(C)c(C)c1N[S+](=O)([O-])c1ccc(NCCCN2CCN(C)CC2)nc1 [DDD85627]
- IC50 [1, 3]: 0.12 µM
- ED50 (μM) T. brucei [2]: 0.62 µM

Compound: Cc1nn(C)c(C)c1N[S+](=O)([O-])c1ccc(COCCn2ccnc2)cc1 [DDD85628]
- IC50 [1, 3]: 11.1 µM
- ED50 (μM) T. brucei [2]: >1 µM

Compound: Cc1nn(C)c(C)c1N[S+](=O)([O-])c1ccc(NCCCN(C)C)nc1 [DDD85629]
- IC50 [1, 3]: 2.4 µM
- ED50 (μM) T. brucei [2]: 38.0 µM

Compound: Cc1nn(C)c(C)c1N[S+](=O)([O-])c1ccc(NCCCn2ccnc2)nc1 [DDD85633]
- IC50 [1, 4]: 2 µM
- ED50 (μM) T. brucei [2]: >50 µM

Compound: COc1cc(C)c([S+](=O)([O-])Nc2ccc(C)nc2C)c(C)c1C [DDD85634]
- IC50 [1, 4]: 27.9 µM
- ED50 (μM) T. brucei [2]: >1 µM

Compound: Cc1nn(C)c(C)c1N[S+](=O)([O-])c1ccc(CNCCN(C)C)cc1 [DDD85640]
- IC50 [1, 4]: 3.3 µM
- ED50 (μM) T. brucei [2]: >50 µM

Compound: Cc1nn(C)c(C)c1N[S+](=O)([O-])c1ccc(CNCCN2CCCCC2)cc1 [DDD85643]
- IC50 [1, 4]: 8 µM
- ED50 (μM) T. brucei [2]: >1 µM

Compound: Cc1nn(C)c(C)c1N[S+](=O)([O-])c1ccc(COCCCN(C)C)cc1 [DDD85647]
- IC50 [1, 4]: 66.1 µM
- ED50 (μM) T. brucei [2]: >1 µM

Compound: Cc1nn(C)c(C)c1N[S+](=O)([O-])c1ccc(COCCCN2CCN(C)CC2)cc1 [DDD85648]
- IC50 [1, 4]: 47.7 µM
- ED50 (μM) T. brucei [2]: >1 µM

Compound: Cc1nn(C)c(C)c1N[S+](=O)([O-])c1ccc(COCCN2CCN(C)CC2)cc1 [DDD85649]
- IC50 [1, 4]: 40 µM
- ED50 (μM) T. brucei [2]: >1 µM

Compound: Cc1nn(C)c(C)c1N[S+](=O)([O-])c1ccc(COCCCCN(C)C)cc1 [DDD85650]
- IC50 [1, 4]: 52.6 µM
- ED50 (μM) T. brucei [2]: >1 µM

Compound: Cc1nn(C)c(C)c1N[S+](=O)([O-])c1ccc(NCc2cccc(CN3CCCCC3)c2)nc1 [DDD85651]
- IC50 [1, 4]: 1.8 µM
- ED50 (μM) T. brucei [2]: 9.8 µM

Compound: Cc1nn(C)c(C)c1N[S+](=O)([O-])c1ccc(-c2cccc(C=O)c2)cc1 [DDD86210]
- IC50 [1, 4]: 6 µM
- ED50 (μM) T. brucei [2]: >1 µM

Compound: Cc1nn(C)c(C)c1N[S+](=O)([O-])c1ccc(NCCCN2CCN(c3ccccc3)CC2)nc1 [DDD86291]
- IC50 [1, 4]: 1 µM
- ED50 (μM) T. brucei [2]: >1 µM

Compound: Cc1nn(C)c(C)c1NS(=O)(=O)c1c(Cl)cc(-c2ccnc(N3CCC(N(C)C)C3)c2)cc1Cl (stereo not drawn) [DDD86292, 2,6-Dichloro-4-[2-(3-dimethylamino-pyrrolidin-1-yl)-pyridin-4-yl]-N-(1,3,5-trimethyl-1 H-pyrazol-4-yl)-benzenesulfonamide]
- IC50 [1, 4]: 1 µM
- ED50 (μM) T. brucei [2]: >1 µM

Compound: Cc1nn(C)c(C)c1N[S+](=O)([O-])c1ccc(NCCO)nc1 [DDD86293]
- IC50 [1, 4]: 1 µM
- ED50 (μM) T. brucei [2]: >1 µM

Compound: Cc1nn(C)c(C)c1N[S+](=O)([O-])c1ccc(NCCCNC2CCN(Cc3ccccc3)C2)nc1 (stereo not drawn) [DDD86295]
- IC50 [1, 4]: 1 µM
- ED50 (μM) T. brucei [2]: >1 µM

Compound: CNCCNc1cc(-c2cc(Cl)c([S+](=O)([O-])Nc3c(C)nn(C)c3C)c(Cl)c2)ccn1 [DDD86297, 2,6-Dichloro-4-[2-(2-methylamino-ethylamino)-pyridin-4-yl]-N-(1,3,6-trimethyl-1H-pyrazol-4-yl)-benzenesulfonamide]
- IC50 [1, 4]: 1 µM
- ED50 (μM) T. brucei [2]: >1 µM

Compound: Cc1nn(C)c(C)c1N[S+](=O)([O-])c1ccc(NCCN2CCN(C(C)C)CC2)nc1 [DDD86298]
- IC50 [1, 4]: 1 µM
- ED50 (μM) T. brucei [2]: >1 µM

Compound: Cc1nn(C)c(C)c1NS(=O)(=O)c1c(Cl)cc(-c2ccnc(NCCNc3ccccn3)c2)cc1Cl [DDD86302, 2,6-Dichloro-4-{2-[2-(pyridin-2-ylamino)-ethylamino]pyridin-4-yl}-N-(1,3,5-trimethyl-1 H-pyrazol-4-yl)-benzenesulfonamide]
- IC50 [1, 4]: 1 µM
- ED50 (μM) T. brucei [2]: >1 µM

Compound: Cc1nn(C)c(C)c1N[S+](=O)([O-])c1ccc(NCCN2CCN(C)CC2c2ccccc2)nc1 (stereo not drawn) [DDD86304]
- IC50 [1, 4]: 1 µM
- ED50 (μM) T. brucei [2]: >1 µM

Compound: Cc1nn(C)c(C)c1NS(=O)(=O)c1c(Cl)cc(-c2ccnc(NCCCn3ccnc3)c2)cc1Cl [DDD86308, 2,6-Dichloro-4-[2-(3-imidazol-1-yl-propylamino)-pyridin-4-yl]-N-(1,3,5-trimethyl-1H-pyrazol-4-yl)-benzenesulfonamide]
- IC50 [1, 4]: 1 µM
- ED50 (μM) T. brucei [2]: >1 µM

Compound: Cc1nn(C)c(C)c1N[S+](=O)([O-])c1ccc(NCCN2CCN(C(=O)OC(C)(C)C)CC2)nc1 [DDD86310]
- IC50 [1, 4]: 1 µM
- ED50 (μM) T. brucei [2]: >1 µM

Compound: CC(=O)c1cccc(Nc2ccc([S+](=O)([O-])Nc3c(C)nn(C)c3C)cn2)c1 [DDD86311]
- IC50 [1, 4]: 1 µM
- ED50 (μM) T. brucei [2]: >1 µM

Compound: Cc1nn(C)c(C)c1N[S+](=O)([O-])c1c(Cl)cc(C#CCN2CCCCC2)cc1Cl [DDD86476]
- IC50 [1, 4]: 5.9 µM
- ED50 (μM) T. brucei [2]: >1 µM

Compound: Cc1nn(C)c(C)c1N(CCCO)[S+](=O)([O-])c1ccc(-c2ccnc(N3CCNCC3)c2)cc1 [DDD87755, N-(3-Hydroxy-propyl)-4-(2-piperazin-1-yl-pyridin-4-yl)-N-(1,3,5-trimethyl-1H-pyrazol-4-yl)-benzenesulfonamide]
- IC50 [1, 4]: 0.05 µM
- ED50 (μM) T. brucei [2]: 0.98 µM

Compound: Cc1nn(C)c(C)c1NS(=O)(=O)c1ccc(-c2ccnc(N3CCNC(c4ccccc4)C3)c2)cc1 (stereo not drawn) [DDD87756, 4-[2-(3-Phenyl-piperazin-1-yl)-pyridin-4-yl]-N-(1,3,5-trimethyl-1H-pyrazol-4-yl)-benzenesulfonamide]
- IC50 [1]: 0.76 µM
- ED50 (μM) T. brucei [2]: >1 µM

Compound: Cc1nn(C)c(C)c1N[S+](=O)([O-])c1ccc(N2CCC(N3CCN(Cc4ccccc4)CC3)C2)nc1 (stereo not drawn) [DDD87760]
- IC50 [1, 4]: 34.4 µM
- ED50 (μM) T. brucei [2]: >1 µM

Compound: Cc1nn(C)c(C)c1NS(=O)(=O)c1c(Cl)cc(-c2cccc3c2CCNC3)cc1Cl [DDD87762]
- IC50 [1, 4]: 2.6 µM
- ED50 (μM) T. brucei [2]: >1 µM

Compound: Cc1nn(C)c(C)c1N[S+](=O)([O-])c1ccc(N2CCC(N3CCNCC3)C2)nc1 (stereo not drawn) [DDD88008]
- IC50 [1, 4]: 0.11 µM
- ED50 (μM) T. brucei [2]: 18.0 µM

Compound: Cc1noc(C)c1N[S+](=O)([O-])c1ccc(CCCN2CCN(C)CC2)cc1 [DDD88190]
- IC50 [1, 4]: 1.1 µM
- ED50 (μM) T. brucei [2]: 31.0 µM

Compound: Cc1c(N[S+](=O)([O-])c2c(Cl)cc(Br)cc2Cl)cnn1C [DDD88315]
- IC50 [1, 4]: 20 µM
- ED50 (μM) T. brucei [2]: >10 µM

Compound: Cc1cc(Br)ccc1[S+](=O)([O-])Nc1c(C)nn(C)c1C [DDD88316]
- IC50 [1, 4]: 12.7 µM
- ED50 (μM) T. brucei [2]: >10 µM

Compound: Cc1nn(C)c(C)c1N[S+](=O)([O-])c1ccc(Br)cc1F [DDD88318]
- IC50 [1, 4]: 10 µM
- ED50 (μM) T. brucei [2]: >10 µM

Compound: Cc1ccnc(C)c1N[S+](=O)([O-])c1c(Cl)cc(-c2ccnc(N3CCNCC3)c2)cc1Cl [DDD88319]
- IC50 [1, 4]: 0.045 µM
- ED50 (μM) T. brucei [2]: 0.69 µM

Compound: Cc1nn(C)c(C)c1N[S+](=O)([O-])c1c(F)cc(-c2ccnc(N3CCNCC3)c2)cc1F [DDD88323]
- IC50 [1, 4]: 0.004 µM
- ED50 (μM) T. brucei [2]: 0.005 µM

Compound: Cc1nn(C)c(C)c1N[S+](=O)([O-])c1ccc(-c2cccc(CN)c2)cc1 [DDD88560]
- IC50 [1, 4]: 0.054 µM
- ED50 (μM) T. brucei [2]: 2.15 µM

Compound: Cc1nn(C)c(C)c1N[S+](=O)([O-])c1ccc(CCCN2CCN(C)CC2)cc1Cl [DDD90058]
- IC50 [1, 4]: 0.027 µM
- ED50 (μM) T. brucei [2]: 0.20 µM

Compound: Cc1nn(C)c(C)c1N[S+](=O)([O-])c1cc(F)c(CCCN2CCN(C)CC2)cc1F [DDD90059]
- IC50 [1, 4]: 0.054 µM
- ED50 (μM) T. brucei [2]: 0.48 µM

Compound: Cc1c(N[S+](=O)([O-])c2c(Cl)cc(CCCN3CCN(C)CC3)cc2Cl)c(CC(C)C)nn1C [DDD90060]
- IC50 [1, 4]: 0.006 µM
- ED50 (μM) T. brucei [2]: 0.02 µM

Compound: Cc1nn(C)c(C)c1N[S+](=O)([O-])c1ccc(-c2cccc(CCN(C)C)c2)cc1 [DDD90106]
- IC50 [1, 4]: 0.024 µM
- ED50 (μM) T. brucei [2]: 0.251 µM
